Assay results reported in patent US20110269811A1, “INHIBITORS OF SEMICARBAZIDE-SENSITIVE AMINE OXIDASE (SSAO) AND VAP-1 MEDIATED ADHESION USEFUL FOR TREATMENT AND PREVENTION OF DISEASES” (priority 2006, published 2011).
Where a name gives a salt, the structure may show the parent alone.

How the values were obtained:
human MAO-B = target: T1, human MAO-B (Homo sapiens, UniProt P27338); assay: MAO-B activity, colorimetric method, benzylamine substrate; format: biochemical; details: for Specificity of SSAO on MAO-B: ratio of IC50 for MAO-B to IC50 for SSAO; for IC50: recombinant human MAO-B
T1 construct: purchased BD Biosciences (MA, USA)
T1 sequence (P27338 1-520): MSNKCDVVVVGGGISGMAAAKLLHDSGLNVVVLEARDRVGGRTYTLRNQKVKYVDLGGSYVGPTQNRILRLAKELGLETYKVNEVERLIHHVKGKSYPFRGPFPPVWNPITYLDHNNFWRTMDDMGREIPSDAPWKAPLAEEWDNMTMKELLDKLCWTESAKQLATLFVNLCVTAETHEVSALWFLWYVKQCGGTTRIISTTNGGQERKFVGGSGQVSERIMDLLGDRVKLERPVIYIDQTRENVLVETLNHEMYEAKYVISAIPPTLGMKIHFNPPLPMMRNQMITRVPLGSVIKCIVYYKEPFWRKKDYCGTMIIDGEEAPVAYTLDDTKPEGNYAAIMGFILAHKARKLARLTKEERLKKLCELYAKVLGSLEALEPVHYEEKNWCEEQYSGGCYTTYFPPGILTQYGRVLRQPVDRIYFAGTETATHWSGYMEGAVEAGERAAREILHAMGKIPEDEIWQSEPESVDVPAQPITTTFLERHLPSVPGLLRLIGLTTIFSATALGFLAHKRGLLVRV
Method: The specificities of the different SSAO inhibitors was tested by determining their abilities to inhibit MAO-A and MAO-B activities in vitro. Recombinant human MAO-A and human MAO-B enzymes were obtained from BD Biosciences (MA, USA). MAO activity was measured using the colorimetric method essentially as described (Holt, A. et al. (1997) Anal. Biochem. 244: 384). A pre-determined amount of inhibitor diluted in 0.2M potassium phosphate buffer, pH 7.6, was added to each well, if required. […] Controls lacked inhibitor. The following agents were then added to a final reaction volume of 200 μL in 0.2M potassium phosphate buffer, pH 7.6: 0.04 mg/ml of MAO-A or 0.07 mg/ml MAO-B enzyme, 15 μL of 10 mM tyramine substrate (for MAO-A), or 15 μL 100 mM benzylamine substrate (for MAO-B), and 50 μL of freshly made chromogenic solution. The chromogenic solution contained 750 μM vanillic acid (Sigma#V-2250), 400 μM 4-aminoantipyrine (Sigma #A-4328) and 12 U/mL horseradish peroxidase (Sigma #P-8250) in order to cause a change of 0.5 OD A490 nm/h. […] The plates were incubated for 60 min at 37° C. The increase in absorbance, reflecting MAO activity, was measured at 490 nm using microplate spectrophotometer (Power Wave 40, Bio-Tek Inst.). Inhibition was presented as percent inhibition compared to control after correcting for background absorbance and IC50 values calculated using GraphPad Prism software. Clorgyline and pargyline (inhibitors of MAO-A and -B, respectively) at 1 μM, were added to some wells as positive controls for MAO inhibition.

Recombinant human MAO-A = target: T2, Recombinant human MAO-A (Homo sapiens, UniProt P21397); assay: MAO-A activity, colorimetric method, tyramine substrate; format: biochemical; details: for Specificity of SSAO on MAO-A: ratio of IC50 for MAO-A to IC50 for SSAO; for IC50: recombinant human MAO-A
T2 construct: purchased BD Biosciences (MA, USA)
T2 sequence (P21397 1-527): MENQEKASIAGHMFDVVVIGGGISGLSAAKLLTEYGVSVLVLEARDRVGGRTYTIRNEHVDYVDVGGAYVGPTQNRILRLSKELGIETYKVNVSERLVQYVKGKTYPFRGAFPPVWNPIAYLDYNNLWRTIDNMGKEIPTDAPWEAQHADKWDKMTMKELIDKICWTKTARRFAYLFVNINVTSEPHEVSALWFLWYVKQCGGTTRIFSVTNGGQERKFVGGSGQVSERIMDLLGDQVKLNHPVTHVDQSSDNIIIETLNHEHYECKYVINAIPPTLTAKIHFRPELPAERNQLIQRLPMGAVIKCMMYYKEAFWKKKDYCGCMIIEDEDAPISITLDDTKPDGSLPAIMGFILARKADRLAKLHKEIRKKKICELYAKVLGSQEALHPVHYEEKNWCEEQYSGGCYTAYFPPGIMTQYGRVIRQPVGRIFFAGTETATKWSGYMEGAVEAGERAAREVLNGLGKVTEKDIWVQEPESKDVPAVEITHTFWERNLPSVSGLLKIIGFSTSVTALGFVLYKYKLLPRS
Method: The specificities of the different SSAO inhibitors was tested by determining their abilities to inhibit MAO-A and MAO-B activities in vitro. Recombinant human MAO-A and human MAO-B enzymes were obtained from BD Biosciences (MA, USA). MAO activity was measured using the colorimetric method essentially as described (Holt, A. et al. (1997) Anal. Biochem. 244: 384). A pre-determined amount of inhibitor diluted in 0.2M potassium phosphate buffer, pH 7.6, was added to each well, if required. The amount of inhibitor varied in each assay but was generally at a final concentration of between 1 nM and 1 mM. Controls lacked inhibitor. The following agents were then added to a final reaction volume of 200 μL in 0.2M potassium phosphate buffer, pH 7.6: 0.04 mg/ml of MAO-A or 0.07 mg/ml MAO-B enzyme, 15 μL of 10 mM tyramine substrate (for MAO-A), or 15 μL 100 mM benzylamine substrate (for MAO-B), and 50 μL of freshly made chromogenic solution. The chromogenic solution contained 750 μM vanillic acid (Sigma#V-2250), 400 μM 4-aminoantipyrine (Sigma #A-4328) and 12 U/mL horseradish peroxidase (Sigma #P-8250) in order to cause a change of 0.5 OD A490 nm/h. This was within the linear response range for the assay. The plates were incubated for 60 min at 37° C. The increase in absorbance, reflecting MAO activity, was measured at 490 nm using microplate spectrophotometer (Power Wave 40, Bio-Tek Inst.). Inhibition was presented as percent inhibition compared to control after correcting for background absorbance and IC50 values calculated using GraphPad Prism software. Clorgyline and pargyline (inhibitors of MAO-A and -B, respectively) at 1 μM, were added to some wells as positive controls for MAO inhibition. […] The compounds described in the present invention are therefore expected to have therapeutic utility in the treatment of diseases and conditions in which the activity of SSAO/VAP-1 plays a role, that is, in SSAO/VAP-1 mediated diseases and conditions.

Compound | Specificity of SSAO on MAO-B (human MAO-B) | IC50 (human MAO-B) | Specificity of SSAO on MAO-A (Recombinant human MAO-A) | IC50 (Recombinant human MAO-A) | melting point
COc1ccc(C/C(=C/F)CN)cc1.Cl [Compound I-1-Z, (Z)-3-Fluoro-2-(4-methoxybenzyl)-allylamine hydrochloride] | 88 | 1.6 µM | 4700 | 85 µM | –
Cl.NC/C(=C\F)Cc1ccc(Cl)cc1 [Compound I-3-Z, (Z)-2-(4-Chlorobenzyl)-3-fluoro-allylamine hydrochloride] | 3 | 0.084 µM | 3250 | 91 µM | 145 to 146 °C
CSc1ccc(C/C(=C/F)CN)cc1.Cl [Compound I-9-Z, (Z)-3-Fluoro-2-(4-methylthiobenzyl)allylamine hydrochloride] | 200 | 2.4 µM | 8385 | 109 µM | 144 to 146 °C
CC(C)c1ccc(C/C(=C/F)CN)cc1.Cl [Compound I-14-Z, (Z)-3-Fluoro-2-(4-isopropylbenzyl)allylamine hydrochloride] | 1250 | 9.6 µM | 11250 | 90 µM | 175 to 176 °C
CC(C)(C)c1ccc(C/C(=C/F)CN)cc1.Cl [Compound I-15-Z, (Z)-3-Fluoro-2-(4-tert-butylbenzyl)allylamine hydrochloride] | 5429 | 38 µM | 17000 | 119 µM | 155 to 156 °C
NC/C(=C\Cl)CCc1cc(F)cc(C(F)(F)F)c1.O=C(O)C(F)(F)F [Compound I-40-Z, (Z)-3-Chloro-2-(3-fluoro-5-trifluoromethylphenylethyl)allylamine trifluoroacetate] | 185 | 170 µM | 687 | 632 µM | 51 to 52 °C
COc1ccc(CC/C(=C\Cl)CN)cc1.Cl [Compound I-44-Z, (E)-3-Chloro-2-(4-methoxyphenylethyl)allylamine hydrochloride] | 22 | 16 µM | 146 | 105 µM | 138 °C (dec.)
NC/C(F)=C\Cc1cc(F)cc(C(F)(F)F)c1 [II-1-E, (E)-2-Fluoro-4-(3-fluoro-5-trifluoromethylphenyl)-but-2-enylamine] | >2400 | > 87 µM | >2400 | > 87 µM | –
CN(C)c1cccc(C/C=C(/F)CN)c1.Cl [II-11-E, (E)-2-Fluoro-4-(3-dimethylaminophenyl)-2-butenylamine hydrochloride] | 7272 | – | 2600 | 286 µM | –
COc1cccc(C/C(C)=C(/F)CN)c1 [II-18-E, hydrochloride] | >3448 | > 1000 µM | >3448 | > 1000 µM | –
COc1cccc(OC/C=C(/F)CN)c1 [II-19-E, (E)-2-fluoro-4-(3-methoxyphenoxy)but-2-en-1-amine] | 5312 | 850 µM | >6250 | > 1000 µM | –

The remaining compounds from weak to strong by IC50 (Recombinant human MAO-A), led by results:

Specificity of SSAO on MAO-B (human MAO-B) | IC50 (human MAO-B) | Specificity of SSAO on MAO-A (Recombinant human MAO-A) | IC50 (Recombinant human MAO-A) | melting point | Compound
189 | 1.7 µM | 9400 | 85 µM | 167 to 168 °C | CCOc1ccc(C/C(=C\F)CN)cc1.Cl [Compound I-2-E, (E)-3-Fluoro-2-(4-ethoxybenzyl)-allylamine hydrochloride]
1200 | 12 µM | 7900 | 79 µM | 153 to 154 °C | CCOc1ccc(C/C(=C/F)CN)cc1.Cl [Compound I-2-Z, (Z)-3-Fluoro-2-(4-ethoxybenzyl)-allylamine hydrochloride]
2.54 | 0.033 µM | 5923 | 77 µM | 175 to 176 °C | CC(C)c1ccc(C/C(=C\F)CN)cc1.Cl [Compound I-14-E, (E)-3-Fluoro-2-(4-isopropylbenzyl)allylamine hydrochloride]
64.3 | 1.8 µM | 2643 | 74 µM | 119 to 120.5 °C | COc1cccc(C/C(=C/F)CN)c1.Cl [Compound I-5-Z, (Z)-3-Fluoro-2-(3-methoxybenzyl)allylamine hydrochloride]
3070 | 35 µM | 4211 | 48 µM | – | CC(C)Oc1ccc(C/C(=C\F)CN)cc1 [Compound I-8-E, (E)-3-Fluoro-2-(4-isopropoxybenzyl)allylamine hydrochloride]
5400 | 27 µM | 7000 | 35 µM | 147 to 148 °C | CC(C)Oc1ccc(C/C(=C/F)CN)cc1.Cl [Compound I-8-Z, (Z)-3-Fluoro-2-(4-isopropoxybenzyl)allylamine hydrochloride]
27.6 | 0.69 µM | 1360 | 34 µM | 120.5 to 121.5 °C | Cl.NC/C(=C\F)Cc1cccc(F)c1 [Compound I-19-Z, (Z)-3-Fluoro-2-(3-fluorobenzyl)allylamine hydrochloride]
2.1 | 0.27 µM | 177 | 23 µM | – | NC/C(=C\F)CCc1ccc(F)cc1 [Compound I-99-Z, (Z)-2-(fluoromethylene)-4-(4-fluorophenyl)butan-1-amine]
